Source: the supplement of paper PMC10307832

Assays:
Assay in all cases: relative viability (nuclei count vs DMSO), 5 days (fraction); higher = more cells survive
[1] = compound: C[C@@]1(C(=O)Nc2ccc(F)nc2)CCCN1c1nc(Nc2cc(C3CC3)n[nH]2)c2cccn2n1 + O=C(CCCCCCC(=O)Nc1ccccc1)NO [Vorinostat] (partner 1 µM)
Summary of the method: (§1)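 Relative viability equals treated-well nuclei counts divided by vehicle-well nuclei counts. Counts came from 4× images of lung cancer cell lines grown in 1536-well plates for 5 days after pin-tool dosing on the day after seeding. Dosing used one drug alone or a fixed anchor-drug dose plus five library-drug doses (not always all listed) in √10 steps, and values are medians of duplicate plates.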

Motesanib + Olaparib = compound: CC1(C)CNc2cc(NC(=O)c3cccnc3NCc3ccncc3)ccc21 [Motesanib] + O=C(c1cc(Cc2n[nH]c(=O)c3ccccc23)ccc1F)N1CCN(C(=O)C2CC2)CC1 [Olaparib] (partner 8 µM)
Summary of the method: as §1

Motesanib + Pemetrexed = compound: CC1(C)CNc2cc(NC(=O)c3cccnc3NCc3ccncc3)ccc21 [Motesanib] + Nc1nc2[nH]cc(CCc3ccc(C(=O)N[C@@H](CCC(=O)O)C(=O)O)cc3)c2c(=O)[nH]1 [Pemetrexed] (partner 0.2 µM)
Summary of the method: as §1

[2] = compound: C[C@@]1(C(=O)Nc2ccc(F)nc2)CCCN1c1nc(Nc2cc(C3CC3)n[nH]2)c2cccn2n1 + CS(=O)(=O)N1CCN(Cc2cc3nc(-c4cccc5[nH]ncc45)nc(N4CCOCC4)c3s2)CC1 [Pictilisib] (partner 1 µM)
Summary of the method: as §1

Cell Line	relative viability ([1]; first compound 0.04 µM)	relative viability ([1]; first compound 0.1265 µM)	relative viability ([1]; first compound 0.4 µM)	relative viability ([1]; first compound 1.265 µM)	relative viability (Motesanib + Olaparib; first compound 0.01 µM)	relative viability (Motesanib + Olaparib; first compound 0.03162 µM)	relative viability (Motesanib + Olaparib; first compound 0.1 µM)	relative viability (Motesanib + Olaparib; first compound 0.3162 µM)	relative viability (Motesanib + Olaparib; first compound 1 µM)	relative viability (Motesanib + Pemetrexed; first compound 0.01 µM)	relative viability (Motesanib + Pemetrexed; first compound 0.03162 µM)	relative viability (Motesanib + Pemetrexed; first compound 0.1 µM)	relative viability (Motesanib + Pemetrexed; first compound 0.3162 µM)	relative viability (Motesanib + Pemetrexed; first compound 1 µM)	relative viability ([2]; first compound 0.04 µM)	relative viability ([2]; first compound 0.1265 µM)	relative viability ([2]; first compound 0.4 µM)	relative viability ([2]; first compound 1.265 µM)
NCI-H358	0.451	0.35	0.203	0.156	0.507	0.652	0.626	0.658	0.633	0.161	0.162	0.169	0.164	0.166	0.259	0.237	0.173	0.277
NCI-H441	0.55	0.3	0.397	0.511	0.542	0.452	0.436	0.627	0.496	0.243	0.234	0.238	0.259	0.196	0.455	0.337	0.36	0.375
NCI-H460	0.829	0.431	0.555	0.302	0.413	0.396	0.484	0.446	0.402	0.0586	0.0647	0.0699	0.0738	0.0745	0.299	0.202	0.184	0.236
NCI-H520	0.668	0.668	0.685	0.489	0.319	0.32	0.294	0.297	0.392	0.577	0.594	0.51	0.586	0.643	0.317	0.298	0.284	0.361
NCI-H596	0.571	0.449	0.528	0.466	0.792	0.623	0.648	0.677	0.646	0.509	0.503	0.444	0.306	0.358	0.378	0.349	0.335	0.316
NCI-H647	0.711	0.574	0.489	0.289	0.48	0.638	0.496	0.629	0.611	0.178	0.175	0.16	0.143	0.165	0.443	0.24	0.334	0.348
NCI-H650	0.42	0.195	0.334	0.257	0.446	0.382	0.42	0.39	0.426	0.853	0.942	0.803	0.956	0.859	0.916	0.651	0.689	0.722
